From patent US8652776B2, “Prediction of QT prolongation based on SNP genotype” (Vanda Pharmaceuticals, Inc., priority 2007, dated 2014)

How the values were obtained:
[1] = tested on: patients with schizophrenia; test: Change in QTcF from baseline to Day 14 by SNP genotype, phase 3 clinical trial of iloperidone (WGAS); format: in vivo, human; conditions: iloperidone 12 mg bid
Method: To identify new genetic markers of drug-induced QT prolongation, a whole genome association study (WGAS) was conducted as part of a phase 3 clinical trial of iloperidone. The clinical trial was a randomized, double-blind, placebo-, and ziprasidone-controlled multicenter study evaluating the efficacy, safety, and tolerability of a 24 mg/day dose of iloperidone administered twice a day (bid) for 28 days to patients with schizophrenia in acute exacerbation.
Therefore, the change in QT interval was calculated between baseline and Day 14. The Fridericia correction (QTcF) was applied, and a generalized linear model (GLM) statistical analysis using baseline as a covariate was performed. […] Analysis was focused on those SNPs located within or close to genes (<10 kb away) in which the minor genotype group included at least 10% of the patients. Six SNPs of interest were identified in the CERKL, SLCO3A1, BRUNOL4, NRG3, NUBPL, and PALLD genes (Table 1). The possibility that changes in the QT interval reflect drug concentration differences could not be excluded because drug exposure at the time of electrocardiography (ECG) was not known. However, the six SNPs identified here are within genes not expected to play roles in drug absorption, metabolism, or excretion. For these SNPs, genotype calls generated by the microarray set were confirmed by sequencing on a random subset of DNA samples of iloperidone-treated patients. The association of a particular genotype class with lower or higher increased QT was consistent between men and women and across races. Additional SNPs with statistical association at P<0.001 were observed within or near the CERKL, SLCO3A1, NRG3, NUBPL, and PALLD genes (FIGS. 1a-f).
Patients 18 to 65 years of age with diagnoses of schizophrenia according to the Diagnostic and Statistical Manual of Mental Disorders, 4th Edition (disorganized [295.10], paranoid [295.30], or undifferentiated [295.90]) were eligible to participate in the trial. Patients were randomly assigned to iloperidone 12 mg twice a day (bid), ziprasidone 80 mg bid (active control), or placebo. Doses were titrated to their respective target doses from Days 1 to 7 and were maintained until Day 28. Participation in the pharmacogenomic analysis was optional. Blood samples were collected, and DNA was extracted (Quest Diagnostics Laboratories, Van Nuys, Calif.) from 432 of 457 patients who consented to the optional WGAS, including 218 patients administered iloperidone. Of these iloperidone-treated patients, 183 (152 men and 31 women) with QT data at Day 14 were part of the WGAS reported here. They included 16 Asian, 69 white, and 91 black or African American patients and 7 patients of other ethnic origins.
Twelve-lead ECG was performed at baseline and on Days 7, 14, 21, and 28. Except at baseline, ECG was performed 2 hours after patients had received the morning dose of study drug. ECG was performed 3 times at baseline and on Day 14, with single measurements obtained for other visits. QTc interval was calculated based on QTcF. The effect of iloperidone on QTc interval was measured by the mean change from baseline in Qtc.
Genetic markers associated with prolongation of QTcF were identified through GLM analysis. The dependent variable was mean change from baseline to Day 14 because the effects on QT were greatest by Day 14, when iloperidone achieves steady state concentration. Baseline QTcF was used as a covariate, and genotype was used as the classifiable variable. The GLM used type 3 sums of squares, with all pairwise differences produced among the least squares means. Because 3 genetic models (AA vs non-AA; AB vs non-AB; BB vs non-BB) were tested for each of the 334,563 SNPs, a total of 1,003,689 tests were performed. The Benjamini and Hochberg (BH) procedure was used to control for the expected proportion of FDR. FDR corrections were obtained from PROC MULTTEST (SAS Institute, Cary, N.C.), which produces BH adjustments to original analytical P values. […]

[2] = tested on: patients treated with iloperidone; test: Occurrence of torsades de pointes in patients treated with iloperidone; format: in vivo, human; conditions: any patient treated with iloperidone, to date

COc1cc(C(C)=O)ccc1OCCCN1CCC(c2noc3cc(F)ccc23)CC1 [Iloperidone, 1-[4-[3-[4-(6-fluoro-1,2-benzisoxazol-3-yl)-1-piperidinyl]propoxy]-3-methoxyphenyl]ethanone]
mean change in QT (QTcF) from baseline to Day 14 ([1]; rs993648 (CERKL) genotype CC, N=50): 17.02 ms
mean change in QT (QTcF) from baseline to Day 14 ([1]; rs993648 (CERKL) genotype CT (heterozygous), N=80): 4.50 ms
mean change in QT (QTcF) from baseline to Day 14 ([1]; rs993648 (CERKL) genotype CT (heterozygous), N=80, listed as iloperidone): 4.5 ms
mean change in QT (QTcF) from baseline to Day 14 ([1]; rs993648 (CERKL) genotype Non-CT (homozygous), N=94): 17.81 ms
mean change in QT (QTcF) from baseline to Day 14 ([1]; rs993648 (CERKL) genotype Non-CT (homozygous), N=94, listed as iloperidone): 17.8 ms
mean change in QT (QTcF) from baseline to Day 14 ([1]; rs993648 (CERKL) genotype TT, N=44): 18.72 ms
mean change in QT (QTcF) from baseline to Day 14 ([1]; rs3924426 (SLCO3A1) genotype CC, N=5): -7.00 ms
mean change in QT (QTcF) from baseline to Day 14 ([1]; rs3924426 (SLCO3A1) genotype CT, N=43): 3.64 ms
mean change in QT (QTcF) from baseline to Day 14 ([1]; rs3924426 (SLCO3A1) genotype Non-TT, N=48): 2.53 ms
mean change in QT (QTcF) from baseline to Day 14 ([1]; rs3924426 (SLCO3A1) genotype Non-TT, N=48, listed as iloperidone): 2.5 ms
mean change in QT (QTcF) from baseline to Day 14 ([1]; rs3924426 (SLCO3A1) genotype TT, N=135): 14.99 ms
mean change in QT (QTcF) from baseline to Day 14 ([1]; rs3924426 (SLCO3A1) genotype TT, N=135, listed as iloperidone): 15.0 ms
mean change in QT (QTcF) from baseline to Day 14 ([1]; rs4799915 (BRUNOL4) genotype CC, N=48): 2.88 ms
mean change in QT (QTcF) from baseline to Day 14 ([1]; rs4799915 (BRUNOL4) genotype CC, N=48, listed as iloperidone): 2.9 ms
mean change in QT (QTcF) from baseline to Day 14 ([1]; rs4799915 (BRUNOL4) genotype CT, N=78): 13.52 ms
mean change in QT (QTcF) from baseline to Day 14 ([1]; rs4799915 (BRUNOL4) genotype Non-CC, N=132): 14.46 ms
mean change in QT (QTcF) from baseline to Day 14 ([1]; rs4799915 (BRUNOL4) genotype Non-CC, N=132, listed as iloperidone): 14.5 ms
mean change in QT (QTcF) from baseline to Day 14 ([1]; rs4799915 (BRUNOL4) genotype TT, N=54): 15.81 ms
mean change in QT (QTcF) from baseline to Day 14 ([1]; rs4933824 (NRG3) genotype GG, N=124): 15.33 ms
mean change in QT (QTcF) from baseline to Day 14 ([1]; rs4933824 (NRG3) genotype GG, N=124, listed as iloperidone): 15.3 ms
mean change in QT (QTcF) from baseline to Day 14 ([1]; rs4933824 (NRG3) genotype GT, N=47): 4.62 ms
mean change in QT (QTcF) from baseline to Day 14 ([1]; rs4933824 (NRG3) genotype Non-GG, N=57): 4.41 ms
mean change in QT (QTcF) from baseline to Day 14 ([1]; rs4933824 (NRG3) genotype Non-GG, N=57, listed as iloperidone): 4.4 ms
mean change in QT (QTcF) from baseline to Day 14 ([1]; rs4933824 (NRG3) genotype TT, N=10): 3.41 ms
mean change in QT (QTcF) from baseline to Day 14 ([1]; rs7142881 (NUBPL) genotype AA, N=28): 17.65 ms
mean change in QT (QTcF) from baseline to Day 14 ([1]; rs7142881 (NUBPL) genotype AG, N=71): 16.35 ms
mean change in QT (QTcF) from baseline to Day 14 ([1]; rs7142881 (NUBPL) genotype GG, N=79): 5.67 ms
mean change in QT (QTcF) from baseline to Day 14 ([1]; rs7142881 (NUBPL) genotype GG, N=79, listed as iloperidone): 5.7 ms
mean change in QT (QTcF) from baseline to Day 14 ([1]; rs7142881 (NUBPL) genotype Non-GG, N=99): 16.71 ms
mean change in QT (QTcF) from baseline to Day 14 ([1]; rs7142881 (NUBPL) genotype Non-GG, N=99, listed as iloperidone): 16.7 ms
mean change in QT (QTcF) from baseline to Day 14 ([1]; rs17054392 (PALLD) genotype CC, N=2): 17.33 ms
mean change in QT (QTcF) from baseline to Day 14 ([1]; rs17054392 (PALLD) genotype CT (heterozygous), N=30): -0.69 ms
mean change in QT (QTcF) from baseline to Day 14 ([1]; rs17054392 (PALLD) genotype CT (heterozygous), N=30, listed as iloperidone): -0.7 ms
mean change in QT (QTcF) from baseline to Day 14 ([1]; rs17054392 (PALLD) genotype Non-CT, N=153): 14.16 ms
mean change in QT (QTcF) from baseline to Day 14 ([1]; rs17054392 (PALLD) genotype Non-CT, N=153, listed as iloperidone): 14.2 ms
mean change in QT (QTcF) from baseline to Day 14 ([1]; rs17054392 (PALLD) genotype TT, N=151): 14.12 ms
torsades de pointes in treated patients [2]: no evidence to date indicates that any patient treated with iloperidone has experienced torsades de pointes
